{"source": "BindingDB's records for doi:10.1016/s1074-5521(98)90168-5", "about": "(University of California San Francisco, 1998)", "key": {"[1]": {"molecular_target": "T1, Thyroid hormone receptor alpha (Homo sapiens, UniProt P10827)", "T1 sequence (P10827 whole entry)": "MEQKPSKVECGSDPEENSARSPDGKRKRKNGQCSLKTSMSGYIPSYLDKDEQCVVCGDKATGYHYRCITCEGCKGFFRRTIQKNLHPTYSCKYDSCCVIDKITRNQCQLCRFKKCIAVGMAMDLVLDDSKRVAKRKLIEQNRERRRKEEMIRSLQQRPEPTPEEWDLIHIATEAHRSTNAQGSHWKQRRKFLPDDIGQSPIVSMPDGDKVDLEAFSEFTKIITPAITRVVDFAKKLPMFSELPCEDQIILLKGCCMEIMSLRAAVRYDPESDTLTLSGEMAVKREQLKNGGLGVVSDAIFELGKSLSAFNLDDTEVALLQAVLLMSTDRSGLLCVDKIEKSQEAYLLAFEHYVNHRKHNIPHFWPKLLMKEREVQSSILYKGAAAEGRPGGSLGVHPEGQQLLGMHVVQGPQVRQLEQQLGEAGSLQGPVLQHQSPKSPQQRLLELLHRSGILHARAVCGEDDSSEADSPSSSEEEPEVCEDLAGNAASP", "experiment": "TR Receptor Ligand Binding Assay", "excerpt": "(§1) Human thyroid hormone receptor alpha and beta (hTR alpha1) and (hTR beta1) were produced using TNT coupled reticulocyte lysate system from Promega."}, "[2]": {"molecular_target": "T2, Thyroid hormone receptor beta (Homo sapiens, UniProt P10828)", "T2 sequence (P10828 whole entry)": "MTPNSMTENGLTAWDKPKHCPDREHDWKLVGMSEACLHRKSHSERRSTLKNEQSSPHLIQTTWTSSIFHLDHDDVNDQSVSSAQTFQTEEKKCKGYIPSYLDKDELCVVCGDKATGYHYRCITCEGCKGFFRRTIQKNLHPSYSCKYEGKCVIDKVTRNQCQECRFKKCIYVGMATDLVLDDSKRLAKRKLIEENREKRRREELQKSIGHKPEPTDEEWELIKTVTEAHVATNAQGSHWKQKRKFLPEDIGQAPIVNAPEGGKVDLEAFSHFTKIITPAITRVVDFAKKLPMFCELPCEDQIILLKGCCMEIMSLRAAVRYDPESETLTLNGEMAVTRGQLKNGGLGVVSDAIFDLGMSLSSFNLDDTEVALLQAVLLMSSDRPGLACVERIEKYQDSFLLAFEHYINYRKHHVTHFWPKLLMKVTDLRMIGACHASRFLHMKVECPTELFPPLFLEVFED", "experiment": "TR Receptor Ligand Binding Assay", "excerpt": "as §1"}}, "data": [{"smiles": "Cc1cc(C[C@H](N)C(=O)O)cc(C)c1Oc1ccc(O)c(C(C)C)c1", "note": "[Dimethyl-isopropyl-T3 (DIMIT)]", "values": [{"measurement": "Kd", "setting": "[1]", "result": 9.7, "unit": "nM"}, {"measurement": "Kd", "setting": "[2]", "result": 9.8, "unit": "nM"}]}]}
